Assay results reported in US20120058989A1, “ANTIBACTERIAL FLUOROQUINOLONE ANALOGS” (Achaogen, Inc., priority 2008, published 2012).

Tests used:
Test in all cases: MIC, CLSI broth microdilution
Assay type in all cases: cell-based
[1] = system: A. baumannii AABA1009 (Fluoroquinolone-resistant); details: Table 2
Outline: (§1)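 MICs were read after 20 hours at 35° C in ambient air, with a final inoculum of 5×10^5 CFU/mL from saline-suspended overnight colonies. Serial two-fold dilutions in Mueller Hinton Broth followed the CLSI reference method (M7-A7), with QC strains E. coli ATCC 25922, P. aeruginosa ATCC 27853 and S. aureus ATCC 29213.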

[2] = system: A. baumannii AABA1065 (Fluoroquinolone-susceptible); details: Table 2
Outline: as §1

[3] = system: E. coli AECO001 (Fluoroquinolone susceptible, ATCC25922); details: Table 2, 35° C., 20 hours
Outline: as §1

[4] = system: E. coli AECO066 (Fluoroquinolone-resistant); details: Table 2
Outline: as §1

[5] = system: P. aeruginosa APAE001 (Fluoroquinolone-susceptible, ATCC27853); details: Table 2
Outline: as §1

[6] = system: P. aeruginosa APAE054 (Fluoroquinolone-resistant); details: Table 2
Outline: as §1

[7] = system: S. aureus ASAU001 (Fluoroquinolone-susceptible, ATCC29213); details: Table 2
Outline: as §1

[8] = system: S. aureus ASAU1031 (Fluoroquinolone-resistant); details: Table 2
Outline: as §1

[9] = system: S. pneumoniae ASPN001 (Fluoroquinolone-susceptible, ATCC49619); details: Table 2
Outline: as §1

[10] = system: S. pneumoniae ASPN1027 (Fluoroquinolone-resistant); details: Table 2
Outline: as §1

SMILES | MIC AABA 1009 [1] | MIC AABA 1065 [2] | MIC AECO 001 [3] | MIC AECO 066 [4] | MIC APAE 001 [5] | MIC APAE 054 [6] | MIC ASAU 001 [7] | MIC ASAU 1031 [8] | MIC ASPN 001 [9] | MIC ASPN 1027 [10]
O=C(O)c1cn(C2CC2)c2c3c(c(F)cc2c1=O)N1CC[C@H](O)[C@H]1CC=C3 [19/5, (7aR,8S)-4-Cyclopropyl-12-fluoro-8-hydroxy-1-oxo-4,7,7a,8,9,10-hexahydro-1H-pyrrolo[1′,2′:1,7]azepino[2,3-h]quinoline-2-carboxylic acid] | C (MIC's of greater than 8.0 μg/mL = C) | B (MIC's of greater than 1.0 μg/mL to 8.0 μg/mL = B) | B (MIC's of greater than 1.0 μg/mL to 8.0 μg/mL = B) | C (MIC's of greater than 8.0 μg/mL = C) | C (MIC's of greater than 8.0 μg/mL = C) | C (MIC's of greater than 8.0 μg/mL = C) | A (MIC's of 1.0 μg/mL or less = A) | C (MIC's of greater than 8.0 μg/mL = C) | B (MIC's of greater than 1.0 μg/mL to 8.0 μg/mL = B) | C (MIC's of greater than 8.0 μg/mL = C)
O=C(O)c1cn(C2CC2)c2c3c(c(F)cc2c1=O)N1C(=O)CC[C@H]1COC3 [21/9, (3aS)-13-Cyclopropyl-8-fluoro-6,10-dioxo-3a,4,5,6,10,13-hexahydro-1H,3H-pyrrolo[2′,1′:3,4]oxazepino-[5,6-h]quinoline-11-carboxylic acid] | C (MIC's of greater than 8.0 μg/mL = C) | C (MIC's of greater than 8.0 μg/mL = C) | B (MIC's of greater than 1.0 μg/mL to 8.0 μg/mL = B) | C (MIC's of greater than 8.0 μg/mL = C) | C (MIC's of greater than 8.0 μg/mL = C) | C (MIC's of greater than 8.0 μg/mL = C) | B (MIC's of greater than 1.0 μg/mL to 8.0 μg/mL = B) | C (MIC's of greater than 8.0 μg/mL = C) | C (MIC's of greater than 8.0 μg/mL = C) | C (MIC's of greater than 8.0 μg/mL = C)
N[C@H]1C[C@H]2CN=Cc3c(c(F)cc4c(=O)c(C(=O)O)cn(C5CC5)c34)N2C1.O=C(O)C(F)(F)F [5/10, (3aS,5S)-5-amino-13-cyclopropyl-8-fluoro-10-oxo-3a,4,5,6,10,13-hexahydro-3H-pyrrolo[2′,′:3,4][1,4]diazepino[5,6-h]quinoline-11-carboxylic acid trifluoroacetate] | C (MIC's of greater than 8.0 μg/mL = C) | B (MIC's of greater than 1.0 μg/mL to 8.0 μg/mL = B) | A (MIC's of 1.0 μg/mL or less = A) | C (MIC's of greater than 8.0 μg/mL = C) | B (MIC's of greater than 1.0 μg/mL to 8.0 μg/mL = B) | C (MIC's of greater than 8.0 μg/mL = C) | B (MIC's of greater than 1.0 μg/mL to 8.0 μg/mL = B) | C (MIC's of greater than 8.0 μg/mL = C) | B (MIC's of greater than 1.0 μg/mL to 8.0 μg/mL = B) | C (MIC's of greater than 8.0 μg/mL = C)
N[C@@H]1CCN2c3c(F)cc4c(=O)c(C(=O)O)cn(C5CC5)c4c3CNC[C@H]12.O=C(O)C(F)(F)F.O=C(O)C(F)(F)F [26/17, (3aR,4R)-4-Amino-13-cyclopropyl-8-fluoro-10-oxo-2,3,3a,4,5,6,10,13-octahydro-1H-pyrrolo[2′,1′:3,4][1,4]diazepino[5,6-h]quinoline-11-carboxylic acid bis(trifluoroacetate)] | C (MIC's of greater than 8.0 μg/mL = C) | B (MIC's of greater than 1.0 μg/mL to 8.0 μg/mL = B) | A (MIC's of 1.0 μg/mL or less = A) | C (MIC's of greater than 8.0 μg/mL = C) | B (MIC's of greater than 1.0 μg/mL to 8.0 μg/mL = B) | C (MIC's of greater than 8.0 μg/mL = C) | B (MIC's of greater than 1.0 μg/mL to 8.0 μg/mL = B) | C (MIC's of greater than 8.0 μg/mL = C) | B (MIC's of greater than 1.0 μg/mL to 8.0 μg/mL = B) | C (MIC's of greater than 8.0 μg/mL = C)
NC1CCN2c3c(F)cc4c(=O)c(C(=O)O)cn(C5CC5)c4c3COCC12.O=C(O)C(F)(F)F [6/7, (3aS,4R)-4-amino-13-cyclopropyl-8-fluoro-10-oxo-3a,4,5,6,10,13-hexahydro-1H,3H-pyrrolo[2′,1′:3,4][1,4]oxazepino[5,6-h]quinoline-1′-carboxylic acid trifluoroacetate] | B (MIC's of greater than 1.0 μg/mL to 8.0 μg/mL = B) | A (MIC's of 1.0 μg/mL or less = A) | A (MIC's of 1.0 μg/mL or less = A) | B (MIC's of greater than 1.0 μg/mL to 8.0 μg/mL = B) | A (MIC's of 1.0 μg/mL or less = A) | C (MIC's of greater than 8.0 μg/mL = C) | A (MIC's of 1.0 μg/mL or less = A) | B (MIC's of greater than 1.0 μg/mL to 8.0 μg/mL = B) | A (MIC's of 1.0 μg/mL or less = A) | A (MIC's of 1.0 μg/mL or less = A)
O=C(O)c1cn(C2CC2)c2c3c(c(F)cc2c1=O)N1CCCC1CC(=NO)C3 (centres unmarked) [27/12, 4-Cyclopropyl-12-fluoro-6-(hydroxyimino)-1-oxo-4,5,6,7,7a,8,9,10-octahydro-1H-pyrrolo[1′,2′:1,7]azepino[2,3-h]quinoline-2-carboxylic acid] | C (MIC's of greater than 8.0 μg/mL = C) | B (MIC's of greater than 1.0 μg/mL to 8.0 μg/mL = B) | B (MIC's of greater than 1.0 μg/mL to 8.0 μg/mL = B) | C (MIC's of greater than 8.0 μg/mL = C) | C (MIC's of greater than 8.0 μg/mL = C) | C (MIC's of greater than 8.0 μg/mL = C) | A (MIC's of 1.0 μg/mL or less = A) | B (MIC's of greater than 1.0 μg/mL to 8.0 μg/mL = B) | B (MIC's of greater than 1.0 μg/mL to 8.0 μg/mL = B) | C (MIC's of greater than 8.0 μg/mL = C)
N[C@H]1C[C@H]2CC=Cc3c(ccc4c(=O)c(C(=O)O)cn(C5CC5)c34)N2C1 [25/14, (7aR,9S)-9-amino-4-cyclopropyl-1-oxo-4,7,7a,8,9,10-hexahydro-1H-pyrrolo[1′,2′:1,7]azepino[2,3-h]quinoline-2-carboxylic Acid] | C (MIC's of greater than 8.0 μg/mL = C) | A (MIC's of 1.0 μg/mL or less = A) | A (MIC's of 1.0 μg/mL or less = A) | C (MIC's of greater than 8.0 μg/mL = C) | B (MIC's of greater than 1.0 μg/mL to 8.0 μg/mL = B) | C (MIC's of greater than 8.0 μg/mL = C) | A (MIC's of 1.0 μg/mL or less = A) | C (MIC's of greater than 8.0 μg/mL = C) | A (MIC's of 1.0 μg/mL or less = A) | B (MIC's of greater than 1.0 μg/mL to 8.0 μg/mL = B)
O=C(O)c1cn(C2CC2)c2c3c(c(F)cc2c1=O)N1CCCC1CC(O)C3O (centres unmarked) [27/9, 4-Cyclopropyl-12-fluoro-5,6-dihydroxy-1-oxo-4,5,6,7,7a,8,9,10-octahydro-1H-pyrrolo[1′,2′:1,7]azepino[2,3-h]quinoline-2-carboxylic acid] | C (MIC's of greater than 8.0 μg/mL = C) | B (MIC's of greater than 1.0 μg/mL to 8.0 μg/mL = B) | B (MIC's of greater than 1.0 μg/mL to 8.0 μg/mL = B) | C (MIC's of greater than 8.0 μg/mL = C) | C (MIC's of greater than 8.0 μg/mL = C) | C (MIC's of greater than 8.0 μg/mL = C) | B (MIC's of greater than 1.0 μg/mL to 8.0 μg/mL = B) | C (MIC's of greater than 8.0 μg/mL = C) | C (MIC's of greater than 8.0 μg/mL = C) | C (MIC's of greater than 8.0 μg/mL = C)
